Measurements reported in article PMC10793102 (Acta Pharmaceutica Sinica. B, 2023).
Where two headings read alike, the source gives them in different places.

Assays:
FADD−/− Jurkat = assay: Cell viability assay, protection from necroptosis in FADD−/− Jurkat cells; type: cell-based; settings: Homo sapiens, 16 h
L929 = assay: Cell viability assay, protection from necroptosis in L929 cells; type: cell-based, mouse; settings: Mus musculus, L929, 16 h
hRIPK1 = target: T1, hRIPK1 (Homo sapiens, UniProt Q13546); assay: In vitro RIPK1 kinase activity assay; type: biochemical; settings: Enzymatic IC50s RIPK1, hRIPK1 enzymatic assay
T1 sequence (Q13546 1-671): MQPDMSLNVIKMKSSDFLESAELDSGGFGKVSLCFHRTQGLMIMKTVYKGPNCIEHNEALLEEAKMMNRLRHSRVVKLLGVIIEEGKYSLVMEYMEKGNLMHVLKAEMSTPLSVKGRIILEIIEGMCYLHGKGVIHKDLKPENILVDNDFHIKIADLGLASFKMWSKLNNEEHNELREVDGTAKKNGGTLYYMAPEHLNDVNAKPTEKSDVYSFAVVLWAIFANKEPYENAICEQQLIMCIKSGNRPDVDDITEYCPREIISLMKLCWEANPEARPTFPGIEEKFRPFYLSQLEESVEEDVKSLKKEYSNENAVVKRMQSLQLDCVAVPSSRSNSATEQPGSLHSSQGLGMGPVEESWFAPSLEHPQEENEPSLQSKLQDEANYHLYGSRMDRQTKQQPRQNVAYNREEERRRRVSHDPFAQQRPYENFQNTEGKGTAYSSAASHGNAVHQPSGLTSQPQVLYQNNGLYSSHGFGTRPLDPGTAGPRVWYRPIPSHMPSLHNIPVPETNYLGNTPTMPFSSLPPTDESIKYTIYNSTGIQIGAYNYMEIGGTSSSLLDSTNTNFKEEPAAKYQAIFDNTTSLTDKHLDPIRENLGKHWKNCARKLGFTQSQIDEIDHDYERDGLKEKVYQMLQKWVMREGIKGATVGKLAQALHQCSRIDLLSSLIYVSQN

hRIPK3 = hRIPK3 (Homo sapiens, UniProt Q9Y572); assay: In vitro RIPK3 kinase activity assay; type: biochemical
Sequence of hRIPK3 (Q9Y572 whole entry, the tested form may be a part): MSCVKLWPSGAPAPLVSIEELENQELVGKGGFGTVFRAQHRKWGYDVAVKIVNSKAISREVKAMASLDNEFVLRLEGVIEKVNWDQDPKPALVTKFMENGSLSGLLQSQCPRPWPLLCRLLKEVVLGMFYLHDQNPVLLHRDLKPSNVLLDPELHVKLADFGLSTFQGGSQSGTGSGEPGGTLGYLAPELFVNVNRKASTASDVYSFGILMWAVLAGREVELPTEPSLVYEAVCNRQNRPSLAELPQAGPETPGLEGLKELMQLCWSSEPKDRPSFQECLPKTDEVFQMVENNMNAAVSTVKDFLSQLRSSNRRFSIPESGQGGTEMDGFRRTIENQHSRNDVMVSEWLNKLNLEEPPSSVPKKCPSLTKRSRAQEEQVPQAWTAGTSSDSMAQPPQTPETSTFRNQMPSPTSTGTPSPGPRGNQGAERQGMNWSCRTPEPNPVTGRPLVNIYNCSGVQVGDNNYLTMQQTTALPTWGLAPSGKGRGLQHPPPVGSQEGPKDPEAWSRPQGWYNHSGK

TEL-TRKA fusion = TEL-TRKA fusion (Homo sapiens, UniProt P04629+P41212); assay: Anti-proliferation in engineered Ba/F3 cells dependent on TEL-TRKA; type: cell-based; settings: read-out: IC50 anti-proliferative effect, TEL-TRKA Ba/F3; 72 h
Sequence of TEL-TRKA fusion (P04629 510-781 limits assumed, one chain of several): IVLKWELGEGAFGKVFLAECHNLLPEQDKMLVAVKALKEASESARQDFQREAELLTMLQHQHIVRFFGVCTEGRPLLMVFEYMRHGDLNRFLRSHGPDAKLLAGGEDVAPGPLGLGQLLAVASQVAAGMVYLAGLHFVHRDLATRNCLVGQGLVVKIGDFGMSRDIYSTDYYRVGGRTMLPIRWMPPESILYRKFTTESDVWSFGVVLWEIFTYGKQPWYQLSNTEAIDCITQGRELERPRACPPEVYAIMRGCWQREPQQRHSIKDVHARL

[1] = tested on: phosphorylation of RIPK1, RIPK3 and MLKL; assay: Western blotting of necroptotic signaling in L929 cells; type: cell-based, mouse; settings: TNFα (40 ng/mL) and SM164 (25 nmol/L), 15 h, titration
RIPK1 = type: cell-based, human
SARS-CoV-2 = type: cell-based; settings: 5 μmol/L, 48 h, human lung organoids
PK study in mice = type: in vivo; settings: male, ICR, mouse, plasma
PK study in rats = type: in vivo; settings: SD, rat, plasma
[2] = tested on: TNFα-induced systemic inflammatory response syndrome; assay: TNFα-induced SIRS mouse model; type: in vivo, C57BL/6J male mice; settings: TNFα 10 μg iv
Ripk1K612R/K612R mice = type: in vivo, mouse; settings: 10 or 20 mpk po QD, 40 days
RA symptoms = assay: RA mouse model induced by collagen antibodies and LPS; type: in vivo, BALB/c male mice; settings: 15 or 30 mpk po daily, 8 days
p-S166 RIPK1 = assay: Pharmacodynamic study in SIRS mouse model, p-RIPK1 immunostaining; type: in vivo; settings: 1 mpk, 8 h after TNFα (20 μg)
p-S345 MLKL = assay: Pharmacodynamic study in SIRS mouse model, p-MLKL immunostaining; type: in vivo; settings: 2 mpk, 8 h after TNFα (20 μg)

C[C@@H](c1ccc(-n2cnc3c(N)ncnc32)cc1)N1CCc2nn(C)c(Cc3ccccc3)c2C1=O [compound 62, (S)-5-(1-(4-(6-Amino-9H-purin-9-yl)phenyl)ethyl)-3-benzyl-2-methyl-2,5,6,7-tetrahydro-4H-pyrazolo[4,3-c]pyridin-4-one]
EC50 (FADD−/− Jurkat; read-out: EC50 FADD−/− Jurkat T + S): 0.1 nM | EC50 (FADD−/− Jurkat; read-out: EC50 FADD−/− Jurkat TNFα): 0.02 nM | EC50 (L929; read-out: EC50 L929 T + S): 1.3 nM | EC50 (L929; read-out: EC50 L929 TNFα): 0.2 nM | IC50 (hRIPK1): 3.5 nM | IC50 (hRIPK3): 730 nM | fold less potent against hRIPK3 than hRIPK1 (hRIPK3; ratio of enzymatic IC50s): at least 200 fold | IC50 (TEL-TRKA fusion): 634 nM | phosphorylation cascade (Western blot), L929 [1]: almost completely blocked the phosphorylation cascade at 40 nmol/L | activation of RIPK1 in SARS-CoV-2 infected human lung organoids (RIPK1): completely abolished the activation of RIPK1 | antiviral effects (SARS-CoV-2 N protein levels) (SARS-CoV-2): very strong antiviral effects compared to reported RIPK1i | AUC(0-inf) (PK study in mice; iv, 0.5 mg/kg): 476 ng·h/mL | AUC(0-t) (PK study in mice; iv, 0.5 mg/kg): 471 ng·h/mL | MRT inf (PK study in mice; iv, 0.5 mg/kg): 1.49 h | Vd (PK study in mice; iv, 0.5 mg/kg): 0.94 L/kg | clearance (PK study in mice; iv, 0.5 mg/kg): 10 mL/min/kg | half-life (PK study in mice; iv, 0.5 mg/kg): 1.29 h | AUC(0-inf) (PK study in mice; po, 5 mg/kg): 6520 ng·h/mL | AUC(0-t) (PK study in mice; po, 5 mg/kg): 6500 ng·h/mL | Cmax (PK study in mice; po, 5 mg/kg): 1980 ng/mL | MRT inf (PK study in mice; po, 5 mg/kg): 2.81 h | Tmax (PK study in mice; po, 5 mg/kg): 0.5 h | bioavailability (PK study in mice; po, 5 mg/kg): 82.2% | half-life (PK study in mice; po, 5 mg/kg): 3.86 h | Tmax (PK study in rats; po, 5 mg/kg): 0.5 h | bioavailability (PK study in rats; po, 5 mg/kg): 34.1% | half-life (PK study in rats; po, 5 mg/kg): 4.19 h | AUC(0-inf) (PK study in rats; male, iv, 0.5 mg/kg): 397 ng·h/mL | AUC(0-t) (PK study in rats; male, iv, 0.5 mg/kg): 390 ng·h/mL | MRT inf (PK study in rats; male, iv, 0.5 mg/kg): 1.03 h | Vd (PK study in rats; male, iv, 0.5 mg/kg): 0.77 L/kg | clearance (PK study in rats; male, iv, 0.5 mg/kg): 13.3 mL/min/kg | half-life (PK study in rats; male, iv, 0.5 mg/kg): 0.91 h | AUC(0-inf) (PK study in rats; male, po, 5 mg/kg): 2250 ng·h/mL | AUC(0-t) (PK study in rats; male, po, 5 mg/kg): 2200 ng·h/mL | Cmax (PK study in rats; male, po, 5 mg/kg): 505 ng/mL | MRT inf (PK study in rats; male, po, 5 mg/kg): 6.82 h | symptoms (hypothermia) in SIRS mice ([2]; 1 mpk (po)): almost eliminated the symptoms | survival in SIRS mice ([2]; 1 mpk (po), n = 7): protected all mice from the fatality | acute hypothermia in SIRS mice ([2]; 2 mpk (po)): completely mitigated the acute hypothermia | adverse effects during long-term treatment (Ripk1K612R/K612R mice): no adverse effects had been observed | colorectal stricture, splenomegaly and thymus hyperplasia symptoms in IBD mice (Ripk1K612R/K612R mice): significantly alleviated | diarrhea and weight loss symptoms in IBD mice (Ripk1K612R/K612R mice; vs control group): significantly reduced diarrhea and weight loss symptoms | RA symptoms (paw edema, erythema, joint stiffness) (RA symptoms): effectively eliminate most RA symptoms | bodyweight in RA mice (RA symptoms): without affecting the bodyweight | TNFα-induced activation of RIPK1 in mouse organs (p-S166 RIPK1): almost eliminated TNFα-induced activation of RIPK1 in mouse organs | phosphorylation levels of MLKL in mouse organs (p-S345 MLKL): significantly suppressed
